Results: PubChem BioAssay AID1845205 (Molecular Pharmacology Branch, DTP, NCI, 2023)
“And” between values parts separate entries of the source, which are not always exact repeats. Equal values may be shown once. Values belong to the compound of their own block, whether it stands above or below them. The source made the active and inactive calls. How the source made its calls: active means viability on the fitted dose curve at most 10% of control; inactive means the rest.

Test system: MPNST multicellular tumor spheroids, viability % test/control
Test: Anticancer human tumor MPNST cell line growth inhibition;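 on IC50: spheroids exposed to agents for seven days after three days of growth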;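 on viability, T/C: luminescence signal used as surrogate for viable cell amount; spheroids exposed to agents for seven days after three days of growth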
Details: for viability, T/C: stronger effect = lower value
Source text: Multicellular complex tumor spheroid response to DNA repair inhibitors in combination with DNA-damaging drugs
This study explores the anticancer activities of DNA-damaging drugs and inhibitors of DNA damage repair, both as single agents and in combinations. Complex tumor spheroids comprised of malignant cells, endothelial cells and mesenchymal stem cells served as an in vitro model for human solid tumors. This model system incorporates physiologically relevant features and patient-derived or established malignant cell lines with clinically relevant genetic alterations from many tumor types. Twenty-six patient-derived or established malignant cell lines were evaluated representing sarcoma, melanoma, small cell lung cancer (SCLC), non-small cell lung cancer (NSCLC), as well as bladder, ovarian and pancreatic cancers. The concentration ranges selected for each drug and investigational agent were based upon clinically achievable concentrations if the clinical Cmax of the agent was known.
Compounds. The drugs and compounds olaparib (NSC753686), talazoparib (NSC767125), berzosertib (NSC777718), elimusertib (NSC800525), nedisertib (NSC802822), VX-984 (NSC792969), AZD-1390 (NSC803789), temozolomide (NSC362856), topotecan (NSC609699), trabectedin (NSC813783), staurosporine (NSC755774), and gemcitabine (NSC613327) were obtained from the National Cancer Institute (NCI) Developmental Therapeutics Program Chemical Repository. The FDA-approved anticancer drug set is available from the Developmental Therapeutics Program at https://dtp.cancer.gov/organization/dscb/obtaining/available_plates.htm. […] The stock solutions were prepared in dimethyl sulfoxide (DMSO, Sigma-Aldrich, St. Louis, MO, cat. D2650) at 400-fold the tested concentration and stored at -70 degrees C. Prior to their use, the stock solutions were diluted in fresh medium and the final DMSO concentration in the assay was 0.25% (v/v). All drugs and investigational agents were tested over a range starting from a high concentration at or near the clinical Cmax and decreasing in half-log increments. If the clinical Cmax for an agent had not been determined, the highest concentration tested was 10 microM.
Cell Lines. The patient-derived cancer cell (PDC) lines: 156681-154-R-J1-PDC, 283228-195-R-J1-PDC, 287954-098-R-J1-PDC, 292921-168-R-J2-PDC, 349418-098-R-PDC, 425362-245-T-J1-PDC, 556581-035-R-J1-PDC, and BL0293-F563-PDC were received from the NCI Patient-Derived Models Repository (PDMR, https://pdmr.cancer.gov). The established cell lines HS-SY-2 (RRID:CVCL_8719), MPNST, and SYO-1 (RRID:CVCL_7146) were obtained from the Sloan Kettering Institute. The alveolar soft parts sarcoma cell line ASPS-1 (RRID:CVCL_S738) was established at the NCI and grown from internal seed stocks. The following established cell lines were purchased from the American Type Culture Collection (ATCC, Manassas, VA): G-401 (ATCC, cat. CRL-1441, RRID:CVCL_0270), SW982 (ATCC, cat. HTB-93, RRID:CVCL_1734), VA-ES-BJ (ATCC, cat. CRL-2138, RRID:CVCL_1785), NCI-H719 (ATCC, cat. CRL-5837, RRID:CVCL_1582), NCI-H196 (ATCC, cat. CRL-5823, RRID:CVCL_1509), NCI-H841 (ATCC, cat. CRL-5845, RRID:CVCL_1595), NCI-H1618 (ATCC, cat. CRL-5879, RRID:CVCL_1480), NCI-H1876 (ATCC, cat. CRL-5902, RRID:CVCL_1503), DMS 114 (ATCC, cat. CRL-2066; RRID:CVCL_1174), NCI-H211 (ATCC, cat. CRL-5824; RRID:CVCL_1529), and SW 1271 (ATCC, cat. CRL-2177, RRID:CVCL_1716). The small cell lung cancer cell line COR-L88 was purchased from Sigma-Aldrich (cat. 92031917-1VL, RRID:CVCL_1141). The non-small cell lung cancer cell lines NCI-H226 (RRID:CVCL_1544) and NCI-H322M (RRID:CVCL_1557) were established at the NCI and grown from internal seed stocks. Pooled donor human umbilical vein endothelial cells (HUVEC, Lonza, cat. CC-2519) and human mesenchymal stem cells (hMSC, Lonza, cat. PT-2501) were purchased from Lonza (Walkersville, MD).
Cell Culture. All cells were maintained in an incubator at 37 degrees C and 5% CO2 with 95% humidity. […]

Compound: CC(C)n1c(=O)n(C)c2cnc3cc(F)c(-c4ccc(OCCCN5CCCCC5)nc4)cc3c21
viability, T/C (compound 0.0316 µM): 116% and 75.2% and 95.3%
viability, T/C (compound 0.1 µM): 92% and 92.2% and 75.8%
viability, T/C (compound 0.316 µM): 105% and 84.5% and 144%
viability, T/C (compound 1 µM): 93.2% and 88.2% and 84.2%
viability, T/C (compound 3.16 µM): 92.5% and 85.4% and 72.3%
viability, T/C (compound 10 µM): 63.2% and 56.1% and 54.5%
IC50 (curve of compound): > 10 µM

Compound: CC1COCCN1c1cc(-c2ccnn2C)c2ccnc(-c3ccn[nH]3)c2n1 (stereo unspecified)
viability, T/C (compound 0.0316 µM): 54.6% and 70.5% and 65.8%
viability, T/C (compound 0.1 µM): 47.8% and 60% and 55.1%
viability, T/C (compound 0.316 µM): 37.7% and 46.4% and 41.8%
viability, T/C (compound 1 µM): 39.5% and 46.2% and 33.2%
viability, T/C (compound 3.16 µM): 28.1% and 34.2% and 28.3%
viability, T/C (compound 10 µM): 22.3% and 30.9% and 25%
IC50 (curve of compound): 0.0659 µM and 0.315 µM and 0.154 µM

IC50 (compound alone, run of 12/16/2019): 28.5 nM [middle of 5 runs]
Compound: CC[C@@]1(O)C(=O)OCc2c1cc1n(c2=O)Cc2cc3c(CN(C)C)c(O)ccc3nc2-1
viability, T/C (compound 0.03 µM): 53% [middle of 10 runs]
viability, T/C (compound 0.3 µM): 41.1% [middle of 10 runs]

Compound: CNCc1ccc(-c2cc(-c3nc(-c4ccc(S(=O)(=O)C(C)C)cc4)cnc3N)on2)cc1
viability, T/C (compound 0.00949 µM): 119% and 97.4% and 89.4%
viability, T/C (compound 0.03 µM): 113% and 110% and 98.9%
viability, T/C (compound 0.0949 µM): 100% and 81.1% and 87.2%
viability, T/C (compound 0.3 µM): 74.1% and 69.5% and 55.1%
viability, T/C (compound 0.949 µM): 61.8% and 69.6% and 42.9%
viability, T/C (compound 3 µM): 65.9% and 69.1% and 43.7%
IC50 (curve of compound): > 3 µM and 0.495 µM

Compound: COc1cc(C)[nH]c(=O)c1CN1CCc2c(Cl)cc(C(OC)C3COC3)c(Cl)c2C1=O (stereo unspecified)
viability, T/C (compound 0.0316 µM): 77.2% and 80.5% and 102%
viability, T/C (compound 0.1 µM): 79.6% and 90% and 88.8%
viability, T/C (compound 0.316 µM): 84.7% and 83.3% and 96%
viability, T/C (compound 1 µM): 95.8% and 93.7% and 93.3%
viability, T/C (compound 3.16 µM): 89.1% and 96.8% and 98.1%
viability, T/C (compound 10 µM): 85.9% and 98.7% and 92.1%
IC50 (curve of compound): > 10 µM

Compound: COc1cc2c(cc1O)CCNC21CSC2c3c(OC(C)=O)c(C)c4c(c3C(COC1=O)N1C(O)C3Cc5cc(C)c(OC)c(O)c5C(C21)N3C)OCO4 (stereo unspecified)
viability, T/C (compound 0.003 µM): 12.3% [middle of 10 runs]

Compound: COc1ccc([C@@H](O)c2cc(-c3ncnc4cc(N5CCOCC5)ccc34)c(F)cc2Cl)nn1
viability, T/C (compound 0.0316 µM): 33.1% and 109% and 92.9%
viability, T/C (compound 0.1 µM): 26% and 94% and 75.6%
viability, T/C (compound 0.316 µM): 21.6% and 87.5% and 78.7%
outcome (compound 1 µM): inactive
viability, T/C (compound 1 µM): 14.7% and 50.9%

Compound: Cc1cc(C)c(CNC(=O)c2cc(-c3ccc(CN4CCOCC4)cc3)cc3c2cnn3C2CCCC2)c(=O)[nH]1
viability, T/C (compound 0.0316 µM): 75.2% and 93.7% and 93.8%
viability, T/C (compound 0.1 µM): 119% and 109% and 93.5%
viability, T/C (compound 0.316 µM): 90.4% and 118% and 91.3%
viability, T/C (compound 1 µM): 97.2% and 101% and 92.3%
viability, T/C (compound 3.16 µM): 107% and 114% and 98.7%
viability, T/C (compound 10 µM): 79.3% and 100% and 107%
IC50 (curve of compound): > 10 µM

Compound: Cc1sc2c(c1C)C(c1ccc(Cl)cc1)=NC(CC(=O)Nc1ccc(O)cc1)c1nnc(C)n1-2 (stereo unspecified)
viability, T/C (compound 0.00949 µM): 124% and 109% and 90.5%
viability, T/C (compound 0.03 µM): 110% and 117% and 95.1%
viability, T/C (compound 0.0949 µM): 92.3% and 99.1% and 60.3%
viability, T/C (compound 0.3 µM): 63.9% and 75.2% and 36.5%
viability, T/C (compound 0.949 µM): 51.5% and 55.6% and 23.4%
viability, T/C (compound 3 µM): 46.8% and 52.1% and 25.7%

Compound: Cn1ncnc1[C@H]1c2n[nH]c(=O)c3cc(F)cc(c23)N[C@@H]1c1ccc(F)cc1
viability, T/C (compound 0.00949 µM): 84.8% and 85.2% and 73.3%
viability, T/C (compound 0.03 µM): 105% and 79.8% and 70.5%
viability, T/C (compound 0.0949 µM): 91.6% and 74.7% and 66.9%
viability, T/C (compound 0.3 µM): 76.3% and 66% and 60.6%
viability, T/C (compound 0.949 µM): 67.1% and 53.2% and 46.5%
viability, T/C (compound 3 µM): 62.9% and 51.3% and 43.7%
IC50 (curve of compound): > 3 µM and 0.763 µM

IC50 (compound alone, run of 11/07/2019): > 100 µM and 30.7 µM
Compound: Cn1nnc2c(C(N)=O)ncn2c1=O

Compound: O=C(c1cc(Cc2n[nH]c(=O)c3ccccc23)ccc1F)N1CCN(C(=O)C2CC2)CC1
viability, T/C (compound 0.0949 µM): 88.3% and 108% and 83.2%
viability, T/C (compound 0.3 µM): 75.1% and 84.1% and 60.3%
viability, T/C (compound 0.949 µM): 79.3% and 91.9% and 51.5%
viability, T/C (compound 3 µM): 95.2% and 96.5% and 51.2%
viability, T/C (compound 9.49 µM): 68.4% and 72.2% and 27.7%
viability, T/C (compound 30 µM): 49.3% and 56.8% and 28%

Compound: [2H]c1nc(C)nc([2H])c1-c1cc(NC[C@@H](C)c2cccc3c(C(=O)NC)ccnc23)ncn1
viability, T/C (compound 0.0316 µM): 96.1% and 83.1% and 86.7%
viability, T/C (compound 0.1 µM): 77.8% and 109% and 75.6%
viability, T/C (compound 0.316 µM): 82.6% and 102% and 90.4%
viability, T/C (compound 1 µM): 101% and 103% and 119%
viability, T/C (compound 3.16 µM): 110% and 104% and 71.3%
viability, T/C (compound 10 µM): 101% and 100% and 67.4%
IC50 (curve of compound): > 10 µM

Compound: O=C(c1cc(Cc2n[nH]c(=O)c3ccccc23)ccc1F)N1CCN(C(=O)C2CC2)CC1 + CC[C@@]1(O)C(=O)OCc2c1cc1n(c2=O)Cc2cc3c(CN(C)C)c(O)ccc3nc2-1
IC50 (curve of first compound, second compound 0.003 µM): > 30 µM
IC50 (curve of first compound, second compound 0.00949 µM): > 30 µM
IC50 (curve of first compound, second compound 0.03 µM): > 30 µM
IC50 (curve of first compound, second compound 0.0949 µM): > 30 µM
IC50 (curve of first compound, second compound 0.3 µM): < 0.0949 µM
viability, T/C (second compound 0.003 µM, first compound 0.0949 µM): 87.4%
viability, T/C (second compound 0.003 µM, first compound 0.3 µM): 78%
viability, T/C (second compound 0.003 µM, first compound 0.949 µM): 72.9%
viability, T/C (second compound 0.003 µM, first compound 3 µM): 68%
viability, T/C (second compound 0.003 µM, first compound 9.49 µM): 69.5%
viability, T/C (second compound 0.003 µM, first compound 30 µM): 58.2%
viability, T/C (second compound 0.00949 µM, first compound 0.0949 µM): 81.5%
viability, T/C (second compound 0.00949 µM, first compound 0.3 µM): 73.7%
viability, T/C (second compound 0.00949 µM, first compound 0.949 µM): 62.2%
viability, T/C (second compound 0.00949 µM, first compound 3 µM): 59.3%
viability, T/C (second compound 0.00949 µM, first compound 9.49 µM): 59.9%
viability, T/C (second compound 0.00949 µM, first compound 30 µM): 59%
viability, T/C (second compound 0.03 µM, first compound 0.0949 µM): 53.5%
viability, T/C (second compound 0.03 µM, first compound 0.3 µM): 59.2%
viability, T/C (second compound 0.03 µM, first compound 0.949 µM): 57%
viability, T/C (second compound 0.03 µM, first compound 3 µM): 58.4%
viability, T/C (second compound 0.03 µM, first compound 9.49 µM): 60.9%
viability, T/C (second compound 0.03 µM, first compound 30 µM): 55.3%
viability, T/C (second compound 0.0949 µM, first compound 0.0949 µM): 57.5%
viability, T/C (second compound 0.0949 µM, first compound 0.3 µM): 53.1%
viability, T/C (second compound 0.0949 µM, first compound 0.949 µM): 58.5%
viability, T/C (second compound 0.0949 µM, first compound 3 µM): 54.9%
viability, T/C (second compound 0.0949 µM, first compound 9.49 µM): 54.6%
viability, T/C (second compound 0.0949 µM, first compound 30 µM): 55%
viability, T/C (second compound 0.3 µM, first compound 0.0949 µM): 49.3%
viability, T/C (second compound 0.3 µM, first compound 0.3 µM): 50.7%
viability, T/C (second compound 0.3 µM, first compound 0.949 µM): 50.5%
viability, T/C (second compound 0.3 µM, first compound 3 µM): 46.3%
viability, T/C (second compound 0.3 µM, first compound 9.49 µM): 47.8%
viability, T/C (second compound 0.3 µM, first compound 30 µM): 38.6%
